Assay results taken from US11181534B2, “Routine laboratory and point-of-care (POC) testing for hemostasis” (Bloodworks, priority 2014, dated 2021).

What was measured:
Factor VIII (FVIII) [1] = experiment: FVIII Activity by manual one-stage assay in patient plasma; assay type: in vivo, human; settings: FVIII Case #3, 45 min after Stimate; baseline 18.9%
Protocol: (§1) Blood samples were collected by venipuncture in 3.2% sodium citrate anticoagulant. Platelet poor plasma was separated by centrifugation per clinical protocols, snap frozen, and stored at −80 C until tested. FVIII Antigen was measured by ELISA (FVIII-AG ELISA kit, Affinity Biologicals) per the manufacturer's instructions. FVIII Activity was measured by manual one-stage assay per the clinical protocol of the Bloodworks Northwest Hemostasis Reference Laboratory. The Koate DVI (Kedrion) coefficient (in vivo) was ascertained by measuring FVIII Antigen and FVIII Activity samples from patients undergoing clinically-indicated Koate DVI kinetic studies and calculating the Activity:Antigen ratio. Pooled normal plasma (Precision BioLogic), normal reference plasmas (Precision BioLogic, Siemens), abnormal reference plasma (Siemens), samples from healthy blood donors, and FVIII-deficient plasma (Affinity Biologicals, Siemens) were used in assays as standards and controls.

Factor VIII (FVIII) [2] = experiment: FVIII Antigen by ELISA (FVIII-AG ELISA kit) in patient plasma; assay type: in vivo, human
Protocol: as §1

Factor IX (FIX) [3] = experiment: FIX coefficient, Activity:Antigen ratio (dilution into FIX-deficient plasma / normal plasma standards); assay type: biochemical, human
Protocol: (§2) Blood samples were collected by venipuncture in 3.2% sodium citrate anticoagulant. Platelet poor plasma was separated by centrifugation per clinical protocols, snap frozen, and stored at −80 C until tested. FIX Antigen was measured by FIX-EIA paired antibody ELISA (Affinity Biologicals). FIX-deficient plasma (Affinity Biologicals) was used as a negative control and diluent. FIX Activity was performed via manual one-stage assay per the clinical laboratory protocols of the Bloodworks Northwest Hemostasis Reference Laboratory. FIX-deficient plasma (Siemens) was used as a diluent and negative control. The Benefix (Wyeth Pharmaceuticals) coefficient was ascertained by serial dilution of Benefix into FIX-deficient plasma (Affinity Biologicals), performance of both the FIX Antigen and Activity assays, and calculating the Activity:Antigen ratio.
The patient then received a dose of Alprolix followed by a blood draw 24 hours later. The Alprolix drug coefficient was not able to be experimentally determined due to limited drug availability. In lieu of this, we used normal plasma standards and experimentally determined the coefficient of normal human FIX to be 1.1. We then assumed the drug coefficient for Alprolix to be similar to naturally occurring FIX, and determined the patient's FIX level by: FIX Activity=(Base FIX Activity)+[(Measured FIX Antigen−Base FIX Antigen)×(Patient's FIX Coefficient)].

Factor IX (FIX) [4] = experiment: FIX Antigen by FIX-EIA paired antibody ELISA in patient plasma; assay type: in vivo, human; settings: FIX Case #1, patient with severe Hemophilia B, at presentation, 6 days after Benefix
Protocol: as §2

Factor IX (FIX) [5] = experiment: FIX Activity by manual one-stage assay in patient plasma; assay type: in vivo, human; settings: FIX Case #1, at presentation, 6 days after Benefix
Protocol: as §2

Factor XI (FXI) = experiment: Factor XI Coefficient, serial dilution of normal reference plasma into FXI-deficient plasma; assay type: biochemical, human; settings: plasma pooled from healthy subjects
Protocol: Commercially-available normal and abnormal (FVII- and FXI-deficient) plasmas (Siemens) were obtained to be tested as experimental samples. Factor VII and Factor XI Coefficients were determined by serial dilution of normal reference plasma (Precision BioLogic) into FVII-deficient and FXI-deficient plasmas (Affinity Biologicals).
We tested two plasmas, one with normal levels of FXI, and one deficient in FXI (approximately 1/3 FXI activity). We experimentally determined using plasma pooled from healthy subjects that the coefficient of natural FXI is 0.82. The FXI Activity was then determined by: FXI Activity=[(Measured FXI Antigen)×(FXI Coefficient)].

NC(=O)CC[C@@H]1NC(=O)[C@H](Cc2ccccc2)NC(=O)[C@H](Cc2ccc(O)cc2)NC(=O)CCSSC[C@@H](C(=O)N2CCC[C@H]2C(=O)N[C@H](CCCN=C(N)N)C(=O)NCC(N)=O)NC(=O)[C@H](CC(N)=O)NC1=O [Stimate]
FVIII Activity (Measured) (Factor VIII (FVIII) [1]): 50.76% | FVIII Activity (Calculated) (Factor VIII (FVIII) [2]; FVIII Case #3, 45 min after Stimate, calculated with patient's FVIII coefficient 1.97, baseline 18.9%): 48.92% | Measured FVIII Antigen (FVIII:Ag) (after Stimate) (Factor VIII (FVIII) [2]; FVIII Case #3, patient with mild Hemophilia A, 45 min after Stimate, baseline 9.59 IU/dL): 24.83 IU/dL

Benefix: a different FIX replacement therapy (Wyeth Pharmaceuticals / Pfizer)
drug coefficient (FIX Activity:Antigen ratio) (Factor IX (FIX) [3]; serial dilution of Benefix into FIX-deficient plasma): 2.1 | Measured FIX Antigen (FIX:Ag) (Factor IX (FIX) [4]): 8.0 IU/dL | FIX Activity (Measured) (Factor IX (FIX) [5]): 4%

natural FXI: FXI of plasma pooled from healthy subjects
coefficient of natural FXI (Factor XI (FXI)): 0.82

normal human FIX: naturally occurring FIX in normal plasma standards
coefficient of normal human FIX (Factor IX (FIX) [3]; normal plasma standards): 1.1
